Measured values taken from patent US20150141336A1, “Pancreatic Peptide Compounds and Use” (Novo Nordisk A/S, priority 2012, published 2015).
Numbered stars: 1 amine (or outer) side, 2 acyl side, 3 side chain; on linkers, the order of the positions; unused ones are H or OH. Side chains are listed from the residue outwards. Peptide text beside a SMILES is read from it. * marks the point of attachment. C18 diacid = O=C(O)CCCCCCCCCCCCCCCCC(=O)*; γGlu = O=C(O)[C@H](CCC(=O)[*:2])N[*:1]; AEEA = NCCOCCOCC(=O)O

Assay: Assay (II) PK i.v. minipig, in vivo half-life
Parameters: species or system Göttingen mini-pigs
Conditions: male, Göttingen, minipig, iv, Half-life minipig, Assay (II)
Outline: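 Male Göttingen mini-pigs (18–22 kg, n=5) received 6 nmol/kg i.v. via central catheter, formulated in 50 mM K2HPO4, 0.05% tween 80, pH 8.0. EDTA plasma sampled pre-dose to 240 h, quantified by TFC/LC/MS/MS (MRM, range 1-2000 nmol/l); half-life from non-compartmental analysis per animal.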

| SMILES | half-life [h] |
| --- | --- |
| CC[C@H](C)[C@H](NC(=O)[C@H](Cc1ccc(O)cc1)NC(=O)[C@H](CCCCNC(=O)COCCOCCNC(=O)COCCOCCNC(=O)CC[C@H](NC(=O)CCCCCCCCCCCCCCCCC(=O)O)C(=O)O)NC(=O)[C@H](CCCNC(=N)N)NC(=O)[C@H](CC(C)C)NC(=O)[C@H](CC(=O)O)NC(=O)[C@H](C)NC(=O)[C@H](C)NC(=O)[C@H](Cc1ccc(O)cc1)NC(=O)[C@H](CCC(N)=O)NC(=O)[C@H](C)NC(=O)[C@H](CCSC)NC(=O)[C@H](CCC(N)=O)NC(=O)[C@H](CCC(=O)O)NC(=O)[C@@H]1CCCN1C(=O)[C@@H](NC(=O)[C@H](C)NC(=O)[C@H](CC(N)=O)NC(=O)[C@H](CC(=O)O)NC(=O)CNC(=O)[C@@H]1CCCN1C(=O)[C@H](Cc1ccc(O)cc1)NC(=O)[C@@H](NC(=O)[C@@H]1CCCN1C(=O)[C@H](CCC(=O)O)NC(=O)[C@H](CC(C)C)NC(=O)[C@@H]1CCCN1)C(C)C)[C@@H](C)O)C(=O)N[C@@H](CC(N)=O)C(=O)N[C@@H](CCSC)C(=O)N[C@@H](CC(C)C)C(=O)N[C@H](C(=O)N[C@@H](CCCNC(=N)N)C(=O)N1CCC[C@H]1C(=O)N[C@@H](CCCNC(=N)N)C(=O)N[C@@H](Cc1ccc(O)cc1)C(N)=O)[C@@H](C)O [Compound H] | 62 |
| CC[C@H](C)[C@H](NC(=O)[C@H](Cc1ccc(O)cc1)NC(=O)[C@H](CCCNC(=N)N)NC(=O)[C@H](CCCNC(=N)N)NC(=O)[C@H](CC(C)C)NC(=O)[C@H](CC(=O)O)NC(=O)[C@H](C)NC(=O)[C@H](C)NC(=O)[C@H](CCCCNC(=O)COCCOCCNC(=O)COCCOCCNC(=O)CC[C@H](NC(=O)CCCCCCCCCCCCCCCCC(=O)O)C(=O)O)NC(=O)[C@H](CCC(N)=O)NC(=O)[C@H](C)NC(=O)[C@H](CCSC)NC(=O)[C@H](CCC(N)=O)NC(=O)[C@H](CCC(=O)O)NC(=O)[C@@H]1CCCN1C(=O)[C@@H](NC(=O)[C@H](C)NC(=O)[C@H](CC(N)=O)NC(=O)[C@H](CC(=O)O)NC(=O)CNC(=O)[C@@H]1CCCN1C(=O)[C@H](Cc1ccc(O)cc1)NC(=O)[C@@H](NC(=O)[C@@H]1CCCN1C(=O)[C@H](CCC(=O)O)NC(=O)[C@@H](N)CC(C)C)C(C)C)[C@@H](C)O)C(=O)N[C@@H](CC(N)=O)C(=O)N[C@@H](CCSC)C(=O)N[C@@H](CC(C)C)C(=O)N[C@H](C(=O)N[C@@H](CCCNC(=N)N)C(=O)N1CCC[C@H]1C(=O)N[C@@H](CCCNC(=N)N)C(=O)N[C@@H](Cc1ccc(O)cc1)C(N)=O)[C@@H](C)O [Compound AV] (H-LEPVYPGDNATPEQMAQK([AEEA-AEEA-γGlu-C18 diacid])AADLRRYINMLTRPRY-NH2; N-terminus and C-terminus assumed) | 28 |
| CC[C@H](C)[C@H](NC(=O)[C@H](Cc1ccc(O)cc1)NC(=O)[C@H](CCCNC(=N)N)NC(=O)[C@H](CCCNC(=N)N)NC(=O)[C@H](CC(C)C)NC(=O)[C@H](CC(=O)O)NC(=O)[C@H](CCCCNC(=O)COCCOCCNC(=O)COCCOCCNC(=O)CC[C@H](NC(=O)CCCCCCCCCCCCCCCCC(=O)O)C(=O)O)NC(=O)[C@H](C)NC(=O)[C@H](Cc1ccc(O)cc1)NC(=O)[C@H](CCC(N)=O)NC(=O)[C@H](C)NC(=O)[C@H](CCSC)NC(=O)[C@H](CCC(N)=O)NC(=O)[C@H](CCC(=O)O)NC(=O)[C@@H]1CCCN1C(=O)[C@@H](NC(=O)[C@H](C)NC(=O)[C@H](CC(N)=O)NC(=O)[C@H](CC(=O)O)NC(=O)CNC(=O)[C@@H]1CCCN1C(=O)[C@H](Cc1ccc(O)cc1)NC(=O)[C@@H](NC(=O)[C@@H]1CCCN1C(=O)[C@H](CCC(=O)O)NC(=O)[C@H](CC(C)C)NC(=O)[C@@H]1CCCN1)C(C)C)[C@@H](C)O)C(=O)N[C@@H](CC(N)=O)C(=O)N[C@@H](CCSC)C(=O)N[C@@H](CC(C)C)C(=O)N[C@H](C(=O)N[C@@H](CCCNC(=N)N)C(=O)N1CCC[C@H]1C(=O)N[C@@H](CCCNC(=N)N)C(=O)N[C@@H](Cc1ccc(O)cc1)C(N)=O)[C@@H](C)O [Compound L] (H-PLEPVYPGDNATPEQMAQYAK([AEEA-AEEA-γGlu-C18 diacid])DLRRYINMLTRPRY-NH2; N-terminus and C-terminus assumed) | 83 |
| CC[C@H](C)[C@H](NC(=O)[C@H](Cc1ccc(O)cc1)NC(=O)[C@H](CCCNC(=N)N)NC(=O)[C@H](CCCNC(=N)N)NC(=O)[C@H](CC(C)C)NC(=O)[C@H](CC(=O)O)NC(=O)[C@H](C)NC(=O)[C@H](C)NC(=O)[C@H](Cc1ccc(O)cc1)NC(=O)[C@H](CCC(N)=O)NC(=O)[C@H](C)NC(=O)[C@H](CCSC)NC(=O)[C@H](CCC(N)=O)NC(=O)[C@H](CCC(=O)O)NC(=O)[C@@H]1CCCN1C(=O)[C@H](CCCCNC(=O)COCCOCCNC(=O)COCCOCCNC(=O)CC[C@H](NC(=O)CCCCCCCCCCCCCCCCC(=O)O)C(=O)O)NC(=O)[C@H](C)NC(=O)[C@H](CC(N)=O)NC(=O)[C@H](CC(=O)O)NC(=O)CNC(=O)[C@@H]1CCCN1C(=O)[C@H](Cc1ccc(O)cc1)NC(=O)[C@@H](NC(=O)[C@@H]1CCCN1C(=O)[C@H](CCC(=O)O)NC(=O)[C@H](CC(C)C)NC(=O)[C@@H]1CCCN1)C(C)C)C(=O)N[C@@H](CC(N)=O)C(=O)N[C@@H](CCSC)C(=O)N[C@@H](CC(C)C)C(=O)N[C@H](C(=O)N[C@@H](CCCNC(=N)N)C(=O)N1CCC[C@H]1C(=O)N[C@@H](CCCNC(=N)N)C(=O)N[C@@H](Cc1ccc(O)cc1)C(N)=O)[C@@H](C)O [Compound U] (H-PLEPVYPGDNAK([AEEA-AEEA-γGlu-C18 diacid])PEQMAQYAADLRRYINMLTRPRY-NH2; N-terminus and C-terminus assumed) | 23 |

Further lines, results first:

| half-life [h] | SMILES |
| --- | --- |
| 16 | CC[C@H](C)[C@H](NC(=O)[C@H](Cc1ccc(O)cc1)NC(=O)[C@H](CCCNC(=N)N)NC(=O)[C@H](CCCNC(=N)N)NC(=O)[C@H](CC(C)C)NC(=O)[C@H](CC(=O)O)NC(=O)[C@H](C)NC(=O)[C@H](C)NC(=O)[C@H](Cc1ccc(O)cc1)NC(=O)[C@H](CCC(N)=O)NC(=O)[C@H](C)NC(=O)[C@H](CCSC)NC(=O)[C@H](CCC(N)=O)NC(=O)[C@H](CCC(=O)O)NC(=O)[C@@H]1CCCN1C(=O)[C@H](CCCCNC(=O)COCCOCCNC(=O)COCCOCCNC(=O)CC[C@H](NC(=O)CCCCCCCCCCCCCCCCC(=O)O)C(=O)O)NC(=O)[C@H](C)NC(=O)[C@H](CC(N)=O)NC(=O)[C@H](CC(=O)O)NC(=O)CNC(=O)[C@@H]1CCCN1C(=O)[C@H](Cc1ccc(O)cc1)NC(=O)[C@@H](NC(=O)[C@@H]1CCCN1C(=O)[C@H](CCC(=O)O)NC(=O)[C@@H](N)CC(C)C)C(C)C)C(=O)N[C@@H](CC(N)=O)C(=O)N[C@@H](CCSC)C(=O)N[C@@H](CC(C)C)C(=O)N[C@H](C(=O)N[C@@H](CCCNC(=N)N)C(=O)N1CCC[C@H]1C(=O)N[C@@H](CCCNC(=N)N)C(=O)N[C@@H](Cc1ccc(O)cc1)C(N)=O)[C@@H](C)O [Compound BC] (H-LEPVYPGDNAK([AEEA-AEEA-γGlu-C18 diacid])PEQMAQYAADLRRYINMLTRPRY-NH2; N-terminus and C-terminus assumed) |
| 59 | CC[C@H](C)[C@H](NC(=O)[C@H](Cc1ccc(O)cc1)NC(=O)[C@H](CCCNC(=N)N)NC(=O)[C@H](CCCNC(=N)N)NC(=O)[C@H](CC(C)C)NC(=O)[C@H](CC(=O)O)NC(=O)[C@H](C)NC(=O)[C@H](C)NC(=O)[C@H](Cc1ccc(O)cc1)NC(=O)[C@H](CCC(N)=O)NC(=O)[C@H](C)NC(=O)[C@H](CCSC)NC(=O)[C@H](CCC(N)=O)NC(=O)[C@H](CCC(=O)O)NC(=O)[C@@H]1CCCN1C(=O)[C@@H](NC(=O)[C@H](C)NC(=O)[C@H](CC(N)=O)NC(=O)[C@H](CC(=O)O)NC(=O)CNC(=O)[C@@H]1CCCN1C(=O)[C@H](Cc1ccc(O)cc1)NC(=O)[C@@H](NC(=O)[C@@H]1CCCN1C(=O)[C@H](CCC(=O)O)NC(=O)[C@@H](N)CC(C)C)C(C)C)[C@@H](C)O)C(=O)N[C@@H](CC(N)=O)C(=O)N[C@@H](CCCCNC(=O)COCCOCCNC(=O)COCCOCCNC(=O)CC[C@H](NC(=O)CCCCCCCCCCCCCCCCC(=O)O)C(=O)O)C(=O)N[C@@H](CC(C)C)C(=O)N[C@H](C(=O)N[C@@H](CCCNC(=N)N)C(=O)N1CCC[C@H]1C(=O)N[C@@H](CCCNC(=N)N)C(=O)N[C@@H](Cc1ccc(O)cc1)C(N)=O)[C@@H](C)O [Compound AL] (H-LEPVYPGDNATPEQMAQYAADLRRYINK([AEEA-AEEA-γGlu-C18 diacid])LTRPRY-NH2; N-terminus and C-terminus assumed) |
| 70 | CC[C@H](C)[C@H](NC(=O)[C@H](Cc1ccc(O)cc1)NC(=O)[C@H](CCCNC(=N)N)NC(=O)[C@H](CCCNC(=N)N)NC(=O)[C@H](CC(C)C)NC(=O)[C@H](CC(=O)O)NC(=O)[C@H](C)NC(=O)[C@H](C)NC(=O)[C@H](Cc1ccc(O)cc1)NC(=O)[C@H](CCC(N)=O)NC(=O)[C@H](C)NC(=O)[C@H](CCSC)NC(=O)[C@H](CCC(N)=O)NC(=O)[C@H](CCC(=O)O)NC(=O)[C@@H]1CCCN1C(=O)[C@@H](NC(=O)[C@H](C)NC(=O)[C@H](CC(N)=O)NC(=O)[C@H](CC(=O)O)NC(=O)CNC(=O)[C@@H]1CCCN1C(=O)[C@H](Cc1ccc(O)cc1)NC(=O)[C@@H](NC(=O)[C@@H]1CCCN1C(=O)[C@H](CCC(=O)O)NC(=O)[C@@H](N)CC(C)C)C(C)C)[C@@H](C)O)C(=O)N[C@@H](CCCCNC(=O)COCCOCCNC(=O)COCCOCCNC(=O)CC[C@H](NC(=O)CCCCCCCCCCCCCCCCC(=O)O)C(=O)O)C(=O)N[C@@H](CCSC)C(=O)N[C@@H](CC(C)C)C(=O)N[C@H](C(=O)N[C@@H](CCCNC(=N)N)C(=O)N1CCC[C@H]1C(=O)N[C@@H](CCCNC(=N)N)C(=O)N[C@@H](Cc1ccc(O)cc1)C(N)=O)[C@@H](C)O [Compound AM] (H-LEPVYPGDNATPEQMAQYAADLRRYIK([AEEA-AEEA-γGlu-C18 diacid])MLTRPRY-NH2; N-terminus and C-terminus assumed) |
